The values that follow come from patent US8735406B2, “8-oxodihydropurine derivative” (Dainippon Sumitomo Pharma Co., Ltd., priority 2009, dated 2014).

Where two headings read alike, the source gives them in different places.

This test deals with T1, FAAH (Rattus norvegicus, UniProt P97612).
T1 construct: Preparation of Rat Brain Membranes Preparations (FAAH Enzyme Solution); from tissue; host or cells: rat cerebrum (brain membrane preparation)
T1 sequence (P97612 1-579): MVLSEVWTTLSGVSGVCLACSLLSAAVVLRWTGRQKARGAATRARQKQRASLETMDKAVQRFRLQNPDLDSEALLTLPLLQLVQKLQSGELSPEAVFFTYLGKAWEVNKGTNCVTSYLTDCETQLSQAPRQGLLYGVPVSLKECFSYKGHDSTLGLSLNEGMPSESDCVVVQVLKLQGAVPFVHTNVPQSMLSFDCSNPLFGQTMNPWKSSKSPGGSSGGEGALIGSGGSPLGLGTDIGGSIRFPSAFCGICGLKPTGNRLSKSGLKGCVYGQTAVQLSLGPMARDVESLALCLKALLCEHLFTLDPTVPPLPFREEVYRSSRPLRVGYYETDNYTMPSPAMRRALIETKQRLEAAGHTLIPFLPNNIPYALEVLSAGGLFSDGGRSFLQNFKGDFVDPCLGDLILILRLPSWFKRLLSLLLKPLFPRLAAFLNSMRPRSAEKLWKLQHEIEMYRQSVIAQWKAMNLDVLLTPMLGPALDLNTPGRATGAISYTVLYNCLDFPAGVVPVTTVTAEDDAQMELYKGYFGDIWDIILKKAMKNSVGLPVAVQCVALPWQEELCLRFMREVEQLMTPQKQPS
In words: Determination of FAAH inhibitory activity in rat (rat brain membrane preparations, [3H]-anandamide hydrolysis). It counts as biochemical. Conditions: for inhibition at 0.1 µM: read-out: FAAH Inhibition, Inhibition Rate at 100 nM; for IC50: test substance 0.1 nM to 1 μM, read-out: FAAH Inhibition IC50. On the procedure: Determination of FAAH Inhibitory Activity in Rat
The preparation of rat brain membranes preparations and the determination of FAAH inhibitory activity were carried out according to the Jonsson et al. method [Br. J. Pharmacol., 133, 1263 (2001)].
(1) Preparation of Rat Brain Membranes Preparations (FAAH Enzyme Solution)
The cerebrum was extracted from rats and was freeze-stored at −80° C. To the frozen cerebrum was added 4° C. enzyme homogenization buffer (20 mM HEPES-buffer pH 7.0, 1 mM MgCl2) and the mixture was homogenized using a homogenizer in ice and the homogenates were centrifuged (36,000×g for 20 minutes). After repeating operations of homogenization and centrifugation, the tissue pellets were re-suspended with 4° C. enzyme homogenization buffer. The re-suspensions were incubated at 37° C. for 15 minutes and were centrifuged (36,000×g for 20 minutes), and the resulting tissue membranes were then re-suspended with enzyme solution preparation buffer (50 mM Tris-HCl buffer pH 7.4, 1 mM EDTA, 3 mM MgCl2). The protein concentration in the resulting membrane preparations were determined according to a colorimetry method (BCA Protein Assay: Pierce Inc.) and the preparations were freeze-stored at −80° C. until used for assay.
(2) Screening of Substances for Inhibiting FAAH Activity
To the above membrane preparations (final concentration 100 μg/mL) were added a solution of test substances in DMSO (final concentration in DMSO 1%) and an assay buffer (for final preparation; 22 mM Tris-HCl (pH 7.6), 1.4 mM EDTA, 1.5% BSA, 0.6 mM MgCl2) and the resulting mixtures were preincubated at 37° C. for 10 minutes. Thereto was added a substrate solution (for final preparation; 2 nM [^3H]-Anandamide (American Radiolabeled Chemicals Inc.)+2 μM Anandamide (Sigma-Aldrich Co.)) (final assay volume of 200 μL) and the resulting mixtures were incubated at 37° C. for 10 minutes. Here in control experiment, DMSO was added instead of the solution of test substance in DMSO. Also in blank experiment, DMSO was added instead of the solution of test substance in DMSO and an enzyme solution preparation buffer was also added instead of the membrane preparations. After the incubation, thereto was added a 400 μL ice-cooled solution of chloroform and methanol (1:1 ratio by volume) and the resulting mixtures were stirred. An ethanolamine (ethanolamine-1-[^3H]) as a decomposed product was separated into an upper layer (water/methanol layer) by centrifugation (1,000×g for 10 minutes). The upper layer 200 μL was transferred into 96 well Deepwell Luma Plate-96 (PerkinElmer Inc.) and the radioactivity was measured by microplate scintillation counter (TopCount NXT™: […].). The substances showing a lower measured value compared to those of control were selected as the compound having a FAAH inhibitory activity.
(3) Determination of IC50 Value
The test substances were prepared such that the final concentration of the compounds is within the range of 0.1 nM to 1 μM and were then examined on the effect on FAAH activity according to the above-mentioned protocol.

Setting [1] is: rat brain membrane preparations, 100 nM test substance.
Where [2] appears, read: rat brain membrane preparations.

As a reminder, the inhibition is the relative decrease from the control value, in per cent. For orientation: IC50 means the midpoint of a concentration-inhibition curve. `CCN(CC)C(=O)n1c(=O)n(C)c2nc(-c3ccccc3)ncc21` [Example 40]: the inhibition at 0.1 µM under setting [1] is 20%. For the same compound, the IC50 under setting [2] is over 100 nM.

For `Cn1c(=O)n(C(=O)N2CCCCCC2)c2cnc(-c3ccccc3)nc21` [Example 41], the inhibition at 0.1 µM under setting [1] is 33%. Besides, the IC50 under setting [2] is over 100 nM.

As to `CN(C(=O)n1c(=O)n(C)c2nc(-c3ccccc3)ncc21)C1CCCCC1` [Example 43], the inhibition at 0.1 µM under setting [1] is 20%. Moreover, the IC50 under setting [2] was over 100 nM.

As for `Cn1c(=O)n(C(=O)N2CCCC2Cc2ccccc2)c2cnc(-c3ccccc3)nc21` (stereo not drawn) [Example 44], under “rat brain membrane preparations, 1000 nM test substance (stated in the cell), read-out: FAAH Inhibition, Inhibition Rate (1000 nM)”, the inhibition at 1 µM was determined as 30%. Under setting [2], the IC50 is over 100 nM.

In the case of `COc1cccc(-c2ncc3c(n2)n(C)c(=O)n3C(=O)N2CC[C@@H](OC)C2)c1` [Example 47], the inhibition at 0.1 µM under setting [1] was 16%. For the same compound, the IC50 under setting [2] was over 100 nM.

Consider `COc1cccc(-c2ncc3c(n2)n(C)c(=O)n3C(=O)N(C)C)c1` [Example 48, 2-(3-Methoxyphenyl)-N,N,9-trimethyl-8-oxo-8,9-dihydro-7H-purine-7-carboxamide], for which the inhibition at 0.1 µM under setting [1] was found to be 100%. The IC50 under setting [2] was 4 nM.

`COc1cccc(-c2ncc3c(n2)n(C)c(=O)n3C(=O)N2CCCCC2)c1` [Example 49, 2-(3-Methoxyphenyl)-9-methyl-7-(piperidin-1-ylcarbonyl)-7,9-dihydro-8H-purine-8-one]: the inhibition at 0.1 µM under setting [1] is 99%. The half-maximal inhibitory concentration (IC50) under setting [2] is 6 nM.

Consider `Cn1c(=O)n(C(=O)N2CCN(c3ccc(C(F)(F)F)cn3)CC2)c2cnc(-c3ccccc3)nc21` [Example 50, 9-Methyl-2-phenyl-7-({4-[5-(trifluoromethyl)-pyridin-2-yl]piperazin-1-yl}carbonyl)-7,9-dihydro-8H-purine-8-one], for which, under setting [1], the inhibition at 0.1 µM was determined as 98%. Moreover, the IC50 under setting [2] was 9 nM.

As for `Cn1c(=O)n(C(=O)N2CCN(c3ncccn3)CC2)c2cnc(-c3ccccc3)nc21` [Example 51, 9-Methyl-2-phenyl-7-{[4-(pyrimidin-2-yl)piperazin-1-yl]carbonyl}-7,9-dihydro-8H-purine-8-one], under setting [1], the inhibition at 0.1 µM stood at 97%. Moreover, the IC50 under setting [2] was determined as 25 nM.

Take `Cc1cccc(N2CCN(C(=O)n3c(=O)n(C)c4nc(-c5ccccc5)ncc43)CC2)n1` [Example 53, 9-Methyl-7-{[4-(6-methylpyridin-2-yl)piperazin-1-yl]carbonyl}-2-phenyl-7,9-dihydro-8H-purine-8-one]: the inhibition at 0.1 µM under setting [1] stood at 97%. Also, the IC50 under setting [2] came out at 19 nM.

Take `COc1cccc(N2CCN(C(=O)n3c(=O)n(C)c4nc(-c5ccccc5)ncc43)CC2)n1` [Example 54, 7-{[4-(6-Methoxypyridin-2-yl)piperazine-1-yl]carbonyl}-9-methyl-2-phenyl-7,9-dihydro-8H-purine-8-one]: the inhibition at 0.1 µM under setting [1] is 99%. Further, the IC50 under setting [2] was 24 nM.

With `Cn1c(=O)n(C(=O)N2CCN(c3nccs3)CC2)c2cnc(-c3ccccc3)nc21` [Example 55, 9-Methyl-2-phenyl-7-{[4-(1,3-thiazol-2-yl)piperazin-1-yl]carbonyl}-7,9-dihydro-8H-purine-8-one], the inhibition at 0.1 µM under setting [1] turned out to be 94%. Also, the IC50 under setting [2] came out at 25 nM.

Consider `Cc1ccc(N2CCN(C(=O)n3c(=O)n(C)c4nc(-c5ccccc5)ncc43)CC2)nc1` [Example 56, 9-Methyl-7-{[4-(5-methylpyridin-2-yl)piperazin-1-yl]carbonyl}-2-phenyl-7,9-dihydro-8H-purine-8-one], for which the inhibition at 0.1 µM under setting [1] amounted to 100%. Besides, the IC50 under setting [2] came out at 7 nM.

Take `COc1cccc(-c2ncc3c(n2)n(C)c(=O)n3C(=O)N2CCC2)c1` [Example 57, 7-(Azetidin-1-ylcarbonyl)-2-(3-methoxyphenyl)-9-methyl-7,9-dihydro-8H-purine-8-one]: the inhibition at 0.1 µM under setting [1] worked out at 101%. For the same compound, the IC50 under setting [2] worked out at 5 nM.

As for `COc1cccc(-c2ncc3c(n2)n(C)c(=O)n3C(=O)N2CCOCC2)c1` [Example 58], under setting [1], the inhibition at 0.1 µM worked out at 76%. In addition, the IC50 under setting [2] stood at 62 nM.

As for `COCCN(C)C(=O)n1c(=O)n(C)c2nc(-c3cccc(OC)c3)ncc21` [Example 59, N-(2-Methoxyethyl)-2-(3-methoxyphenyl)-N,9-dimethyl-8-oxo-8,9-dihydro-7H-purine-7-carboxamide], under setting [1], the inhibition at 0.1 µM was found to be 99%. Moreover, the concentration for half-maximal inhibition (IC50) under setting [2] is 26 nM.

On to `CCN(C)C(=O)n1c(=O)n(C)c2nc(-c3cccc(OC)c3)ncc21` [Example 60, N-Ethyl-2-(3-methoxyphenyl)-N,9-dimethyl-8-oxo-8,9-dihydro-7H-purine-7-carboxamide], for which the inhibition at 0.1 µM under setting [1] stood at 99%. The half-maximal inhibitory concentration (IC50) under setting [2] is 6 nM.

Consider `COc1cccc(-c2ncc3c(n2)n(C)c(=O)n3C(=O)N2CC[C@@H](F)C2)c1` [Example 62, 7-{[(3R)-3-Fluoropyrrolidin-1-yl]carbonyl}-2-(3-methoxyphenyl)-9-methyl-7,9-dihydro-8H-purine-8-one], for which the inhibition at 0.1 µM under setting [1] stood at 90%. Also, the IC50 under setting [2] was 26 nM.

For the compound `COc1cccc(-c2ncc3c(n2)n(C)c(=O)n3C(=O)N2CC[C@H](F)C2)c1` [Example 63, 7-{[(3S)-3-Fluoropyrrolidin-1-yl]carbonyl}-2-(3-methoxyphenyl)-9-methyl-7,9-dihydro-8H-purine-8-one], the inhibition at 0.1 µM under setting [1] is 100%. The IC50 under setting [2] was found to be 17 nM.

On to `COc1cccc(-c2ncc3c(n2)n(C)c(=O)n3C(=O)N(C)CCOc2ccccc2)c1` [Example 65, 2-(3-Methoxyphenyl)-N,9-dimethyl-8-oxo-N-(2-phenoxyethyl)-8,9-dihydro-7H-purine-7-carboxamide], for which, under setting [1], the inhibition at 0.1 µM was found to be 98%. Also, under setting [2], the IC50 was 3 nM.

On to `COc1cccc(-c2ncc3c(n2)n(C)c(=O)n3C(=O)N2CCC(Cc3ccccc3)CC2)c1` [Example 66, 7-[(4-Benzylpiperidin-1-yl)carbonyl]-2-(3-methoxyphenyl)-9-methyl-7,9-dihydro-8H-purine-8-one], for which, under setting [1], the inhibition at 0.1 µM worked out at 93%. Besides, under setting [2], the IC50 stood at 46 nM.

For `COc1cccc(-c2ncc3c(n2)n(C)c(=O)n3C(=O)N2CCN(CCc3ccccc3)CC2)c1` [Example 67, 2-(3-Methoxyphenyl)-9-methyl-7-{[4-(2-phenylethyl-)piperazin-1-yl]carbonyl}-7,9-dihydro-8H-purine-8-one], the inhibition at 0.1 µM under setting [1] amounted to 97%. Moreover, the half-inhibitory concentration (IC50) under setting [2] worked out at 7 nM.

Regarding `COc1cccc(-c2ncc3c(n2)n(C)c(=O)n3C(=O)N2CCC(CCc3ccc(Cl)cc3)CC2)c1` [Example 68, 7-({4-[2-(4-Chlorophenyl)ethyl]piperidin-1-yl}carbonyl)-2-(3-methoxyphenyl)-9-methyl-7,9-dihydro-8H-purine-8-one], the inhibition at 0.1 µM under setting [1] is 98%. For the same compound, the IC50 under setting [2] came out at 6 nM.

With `COc1cccc(-c2ncc3c(n2)n(C)c(=O)n3C(=O)N(C)CCc2ccc(Cl)cc2)c1` [Example 69, N-[2-(4-Chlorophenyl)ethyl]-2-(3-methoxyphenyl)-N,9-dimethyl-8-oxo-8,9-dihydro-7H-purine-7-carboxamide], the inhibition at 0.1 µM amounted to 101%. The IC50 under setting [2] is 2 nM.
